Results published in patent publication US10077261B2, “Imidazolin-5-one derivative useful as FASN inhibitors for the treatment of cancer” (Janssen Pharmaceutica NV, priority 2012, dated 2018).

Legend:
[1] = test system: PC-3M-Luc-C6 prostate cells; test: In vitro PC-3M-Luc-C6 prostate cell proliferation assay in lipid reduced medium; assay type: cell-based; details: 96 h, read-out: pIC50 PC-3M-Luc-C6 prostate cell (converted)
[2] = test system: LNCaP-Vancouver prostate cells; test: In vitro LNCaP Vancouver prostate cell proliferation assay in lipid reduced medium; assay type: cell-based; details: read-out: pIC50 LNCaP_Vancouver prostate cell (converted)
[3] = target: Fatty Acid Synthase Keto-reductase Domain (FASN KR) (Homo sapiens, UniProt P49327); test: Fatty Acid Synthase keto-reductase domain (FASN KR) inhibition, NADPH oxidation at 340 nm
Fatty Acid Synthase Keto-reductase Domain (FASN KR), sequence (P49327 whole entry, the tested form may be a part): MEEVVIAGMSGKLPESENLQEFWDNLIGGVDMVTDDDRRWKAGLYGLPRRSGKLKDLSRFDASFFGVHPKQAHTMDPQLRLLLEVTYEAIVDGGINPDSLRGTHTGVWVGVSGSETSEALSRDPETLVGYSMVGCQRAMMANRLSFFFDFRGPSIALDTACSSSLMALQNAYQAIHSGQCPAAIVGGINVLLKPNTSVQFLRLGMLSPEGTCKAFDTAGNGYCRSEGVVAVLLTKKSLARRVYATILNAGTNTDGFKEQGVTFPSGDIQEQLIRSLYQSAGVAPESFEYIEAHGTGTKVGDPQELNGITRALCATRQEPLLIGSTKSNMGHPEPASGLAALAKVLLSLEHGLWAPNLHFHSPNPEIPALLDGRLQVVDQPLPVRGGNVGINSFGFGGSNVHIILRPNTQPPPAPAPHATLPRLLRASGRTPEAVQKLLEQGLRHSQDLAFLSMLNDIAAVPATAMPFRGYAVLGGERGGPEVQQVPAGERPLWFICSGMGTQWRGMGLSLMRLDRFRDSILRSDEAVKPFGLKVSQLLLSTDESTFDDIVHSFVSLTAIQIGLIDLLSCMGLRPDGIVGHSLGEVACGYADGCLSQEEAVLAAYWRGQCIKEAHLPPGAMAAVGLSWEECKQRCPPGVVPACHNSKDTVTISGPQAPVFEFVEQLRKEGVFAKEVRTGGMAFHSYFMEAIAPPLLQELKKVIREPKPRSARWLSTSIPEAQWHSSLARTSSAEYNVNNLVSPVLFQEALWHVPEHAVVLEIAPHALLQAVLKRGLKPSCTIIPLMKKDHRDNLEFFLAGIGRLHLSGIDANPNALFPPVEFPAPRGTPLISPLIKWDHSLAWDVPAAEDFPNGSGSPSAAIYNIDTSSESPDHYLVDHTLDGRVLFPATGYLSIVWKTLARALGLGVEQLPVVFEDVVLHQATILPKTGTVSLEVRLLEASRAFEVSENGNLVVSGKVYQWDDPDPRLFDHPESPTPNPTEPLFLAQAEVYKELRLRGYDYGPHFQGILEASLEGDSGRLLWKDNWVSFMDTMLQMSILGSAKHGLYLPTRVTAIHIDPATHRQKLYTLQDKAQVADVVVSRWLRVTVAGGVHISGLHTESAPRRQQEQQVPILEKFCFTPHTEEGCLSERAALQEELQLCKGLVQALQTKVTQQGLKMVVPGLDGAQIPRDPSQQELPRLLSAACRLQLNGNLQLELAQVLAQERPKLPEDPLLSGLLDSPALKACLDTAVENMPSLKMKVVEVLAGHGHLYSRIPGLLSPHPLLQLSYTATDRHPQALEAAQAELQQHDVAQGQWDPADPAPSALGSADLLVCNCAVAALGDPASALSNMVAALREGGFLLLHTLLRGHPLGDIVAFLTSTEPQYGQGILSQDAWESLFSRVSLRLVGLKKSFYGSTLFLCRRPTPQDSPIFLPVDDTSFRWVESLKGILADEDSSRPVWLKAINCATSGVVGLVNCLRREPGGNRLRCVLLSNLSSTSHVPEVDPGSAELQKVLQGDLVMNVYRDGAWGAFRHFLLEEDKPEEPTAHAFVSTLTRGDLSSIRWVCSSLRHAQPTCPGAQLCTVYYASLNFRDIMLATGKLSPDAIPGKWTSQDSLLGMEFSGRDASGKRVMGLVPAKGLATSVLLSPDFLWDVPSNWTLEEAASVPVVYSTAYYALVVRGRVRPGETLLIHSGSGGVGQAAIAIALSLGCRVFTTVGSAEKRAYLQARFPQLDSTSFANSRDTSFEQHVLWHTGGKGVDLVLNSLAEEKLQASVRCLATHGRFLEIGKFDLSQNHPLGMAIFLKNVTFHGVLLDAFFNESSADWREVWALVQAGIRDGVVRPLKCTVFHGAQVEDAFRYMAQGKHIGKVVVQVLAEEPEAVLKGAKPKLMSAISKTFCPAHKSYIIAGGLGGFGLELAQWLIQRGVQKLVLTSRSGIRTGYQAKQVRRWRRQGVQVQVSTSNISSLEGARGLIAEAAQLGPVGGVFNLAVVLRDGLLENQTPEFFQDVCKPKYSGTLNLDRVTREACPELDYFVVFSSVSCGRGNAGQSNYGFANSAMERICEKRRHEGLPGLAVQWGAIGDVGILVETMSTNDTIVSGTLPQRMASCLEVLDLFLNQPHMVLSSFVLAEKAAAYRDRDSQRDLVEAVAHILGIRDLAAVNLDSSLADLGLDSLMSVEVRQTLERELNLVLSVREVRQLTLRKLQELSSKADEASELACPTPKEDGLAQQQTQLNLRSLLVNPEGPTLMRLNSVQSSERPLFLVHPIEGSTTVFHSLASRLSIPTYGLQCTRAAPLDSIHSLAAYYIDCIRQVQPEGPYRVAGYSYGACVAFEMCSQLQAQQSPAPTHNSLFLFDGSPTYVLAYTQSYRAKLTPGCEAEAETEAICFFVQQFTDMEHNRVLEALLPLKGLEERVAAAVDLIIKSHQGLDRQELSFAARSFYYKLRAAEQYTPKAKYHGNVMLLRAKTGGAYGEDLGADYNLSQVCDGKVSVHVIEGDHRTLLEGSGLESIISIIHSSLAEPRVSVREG
Method: After 20 minutes incubation at room temperature the plate was measured again (T2).
The decrease in absorbance was calculated as (Absorbance before incubation T1)−(Absorbance following incubation T2).
A plot of Controlmin versus test compound concentration was fitted to a 4-parameter logistic curve using a non-linear least squares regression method.

[4] = target: T1, hFASN enzyme (full length) (Homo sapiens, UniProt P49327); test: Fatty Acid Synthase (FASN) inhibition scintillation proximity assay; assay type: biochemical; details: for inhibition at 10 µM: read-out: Human FASN % inhibition @ 10 μM, 10 μM test compound; for IC50: read-out: Human FASN pIC50 (converted)
T1 construct: 10 μL hFASN enzyme (full length, 300 ng, purified in house); made in house
T1 sequence (P49327 whole entry): as the sequence (P49327 whole entry, the tested form may be a part) above
Method in brief: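 Read-out relies on hydrophobic ³H-palmitate product, formed from ³H-acetyl-CoA and malonyl-CoA, binding streptavidin imaging beads, measured at 610±20 nm after at least 24 h. Full-length enzyme (300 ng) in phosphate buffer pH 7.5 with DTT; eight compound concentrations, 0.01–30 μM.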

SMILES	IC50 [1]	IC50 [2]	IC50 [3]	inhibition at 10 µM [4]	IC50 [4]
Cn1ncc2c(-c3ccc(C4=NC5(CC5)C(=O)N4CC4CN(C(=O)C5CC5)C4)cc3)cccc21 [compound 515, 6-{[1-(Cyclopropylcarbonyl)azetidin-3-yl]methyl}-5-[4-(1-methyl-1H-indazol-4-yl)phenyl]-4,6-diazaspiro[2.4]hept-4-en-7-one]	562 nM	2140 nM	437 nM	96%	182 nM
Cn1cc(-c2ccc(-c3ccc(C4=NC5(CC5)C(=O)N4CC4CN(C(=O)C5CC5)C4)cc3)cn2)cn1 [compound 517, 6-{[1-(Cyclopropylcarbonyl)azetidin-3-yl]methyl}-5-{4-[6-(1-methyl-1H-pyrazol-4-yl)pyridin-3-yl]phenyl}-4,6-diazaspiro[2.4]hept-4-en-7-one]	1260 nM	~5250 nM	1510 nM	88%	646 nM
O=C(C1CC1)N1CC(CN2C(=O)C3(CC3)N=C2c2ccc(-c3cnc4ccccc4c3)cc2)C1 [compound 519, 6-{[1-(Cyclopropylcarbonyl)azetidin-3-yl]methyl}-5-(4-quinolin-3-ylphenyl)-4,6-diazaspiro[2.4]hept-4-en-7-one]	550 nM	2690 nM	389 nM	96%	158 nM
Cn1cc(-c2ccc(-c3ccc(C4=NC5(CCOCC5)C(=O)N4C[C@@H]4CCN(C(=O)C5CC5)C4)cc3)cc2)cn1 [compound 655, 3-{[(3R)-1-(cyclopropylcarbonyl)pyrrolidin-3-yl]methyl}-2-[4′-(1-methyl-1H-pyrazol-4-yl)biphenyl-4-yl]-8-oxa-1,3-diazaspiro[4.5]dec-1-en-4-one]	~234 nM	~2510 nM	407 nM	99%	178 nM
Cn1cc(-c2ccc(-c3ccc(C4=NC5(CCOCC5)C(=O)N4C[C@@H]4CCN(C(=O)[C@H]5CCCO5)C4)cc3)cc2)cn1 [compound 657, 2-[4′-(1-Methyl-1H-pyrazol-4-yl)biphenyl-4-yl]-3-({(3R)-1-[(2R)-tetrahydro-furan-2-ylcarbonyl]pyrrolidin-3-yl}methyl)-8-oxa-1,3-diazaspiro[4.5]dec-1-en-4-one]	589 nM	3800 nM	661 nM	97%	309 nM
O=C([C@H]1CCCO1)N1CC[C@@H](CN2C(=O)C3(CCOCC3)N=C2c2ccc(-c3ccc4cccnc4c3)cc2)C1 [compound 663, 2-(4-Quinolin-7-ylphenyl)-3-({(3R)-1-[(2R)-tetrahydro-furan-2-ylcarbonyl]pyrrolidin-3-yl}methyl)-8-oxa-1,3-diazaspiro[4.5]dec-1-en-4-one]	117 nM	550 nM	275 nM	100%	64.6 nM
Cn1ncc2cc(-c3ccc(C4=NC5(CCOCC5)C(=O)N4C[C@@H]4CCN(C(=O)[C@H]5CCCO5)C4)cc3)ccc21 [compound 674, 2-[4-(1-Methyl-1H-indazol-5-yl)phenyl]-3-({(3R)-1-[(2R)-tetrahydro-furan-2-ylcarbonyl]pyrrolidin-3-yl}methyl)-8-oxa-1,3-diazaspiro[4.5]dec-1-en-4-one]	~813 nM	~4900 nM	3160 nM	94%	457 nM
Cn1cc(-c2ccc(-c3ccc(C4=NC5(CCOC5)C(=O)N4C[C@@H]4CCN(C(=O)C5CC5)C4)cc3)cc2)cn1 (stereo partly drawn) [compound 676, 3-{[(3R)-1-(Cyclopropylcarbonyl)pyrrolidin-3-yl]methyl}-2-[4′-(1-methyl-1H-pyrazol-4-yl)biphenyl-4-yl]-7-oxa-1,3-diazaspiro[4.4]non-1-en-4-one]	501 nM	1780 nM	603 nM	98%	269 nM
O=C([C@H]1CCCO1)N1CC[C@@H](CN2C(=O)C3(CCOC3)N=C2c2ccc(-c3ccc4occc4c3)cc2)C1 (stereo partly drawn) [compound 688, 2-[4-(1-Benzofuran-5-yl)phenyl]-3-({(3R)-1-[(2R)-tetrahydro-furan-2-ylcarbonyl]pyrrolidin-3-yl}methyl)-7-oxa-1,3-diazaspiro[4.4]non-1-en-4-one]	832 nM	2950 nM	525 nM	99%	214 nM
Cn1ncc2cc(-c3ccc(C4=NC5(CCOC5)C(=O)N4C[C@@H]4CCN(C(=O)[C@H]5CCCO5)C4)cc3)ccc21 (stereo partly drawn) [compound 692, 2-[4-(1-Methyl-1H-indazol-5-yl)phenyl]-3-({(3R)-1-[(2R)-tetrahydro-furan-2-ylcarbonyl]pyrrolidin-3-yl}metrhyl)-7-oxa-1,3-diazaspiro[4.4]non-1-en-4-one]	1580 nM	4570 nM	3240 nM	99%	794 nM
CC(O)C(=O)N1CC(CN2C(=O)C3(CCOCC3)N=C2c2ccc(-c3ccc4cccnc4c3)cc2)C1 (stereo not drawn) [compound 699, 3-{[1-(2-Hydroxypropanoyl)azetidin-3-yl]methyl}-2-(4-quinolin-7-ylphenyl)-8-oxa-1,3-diazaspiro[4.5]dec-1-en-4-one]	5130 nM	> 10000 nM	5370 nM	89%	~724 nM
O=C([C@H]1CCCO1)N1CC(CN2C(=O)C3(CCOCC3)N=C2c2ccc(-c3ccc4occc4c3)cc2)C1 [compound 704, 2-[4-(1-Benzofuran-5-yl)phenyl]-3-({1-[(2R)-tetrahydro-furan-2-ylcarbonyl]azetidin-3-yl}methyl)-8-oxa-1,3-diazaspiro[4.5]dec-1-en-4-one]	~5750 nM	6920 nM	6610 nM	86%	871 nM
CC(O)C(=O)N1CC(CN2C(=O)C3(CCOC3)N=C2c2ccc(-c3ccc4cccnc4c3)cc2)C1 (stereo not drawn) [compound 715, 3-{[1-(2-Hydroxypropanoyl)azetidin-3-yl]methyl}-2-(4-quinolin-7-ylphenyl)-7-oxa-1,3-diazaspiro[4.4]non-1-en-4-one]	5010 nM	> 10000 nM	5500 nM	86%	724 nM
O=C([C@H]1CCCO1)N1CC(CN2C(=O)C3(CCOC3)N=C2c2ccc(-c3ccc4occc4c3)cc2)C1 (stereo partly drawn) [compound 720, 2-[4-(1-Benzofuran-5-yl)phenyl]-3-({1-[(2R)-tetrahydro-furan-2-ylcarbonyl]azetidin-3-yl}methyl)-7-oxa-1,3-diazaspiro[4.4]non-1-en-4-one]	4680 nM	9120 nM	6460 nM	87%	776 nM
COC(=O)N1CC2(C1)N=C(c1ccc(-c3ccc(-c4cnn(C)c4)cc3)cc1)N(C[C@@H]1CCN(C(=O)[C@H]3CCCO3)C1)C2=O [compound 727, Methyl 6-[4′-(1-methyl-1H-pyrazol-4-yl)biphenyl-4-yl]-8-oxo-7-({(3R)-1-[(2R)-tetrahydro-furan-2-ylcarbonyl]pyrrolidin-3-yl}methyl)-2,5,7-triazaspiro[3.4]ect-5-ene-2-carboxylate]	575 nM	2400 nM	1100 nM	98%	204 nM
